Data taken from PubChem BioAssay AID328 (DTP/NCI, 2004).
Values joined by “and” are separate entries in the source; they are usually repeats but may differ in a detail not shown here. Equal values may be shown once. Inconclusive results and toxic doses are left out.

Tested on: BDF1 mice, P388 leukemia ip, median survival T/C
Test: NCI In Vivo Anticancer Drug Screen. Data for tumor model P388 Leukemia (intraperitoneal) in B6D2F1 (BDF1) mice
Details: endpoint: median survival time, higher = longer survival
Outline: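 Compound-treated tumour-bearing mice were compared with vehicle-treated controls. Survival was recorded, and the value is the treated-group measurement divided by the control-group measurement (T/C).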

[1] = dose: 100.0 mg/kg/injection, schedule: Q01DX009 (ip), vehicle: saline with Tween-80
[2] = dose: 200.0 mg/kg/injection, schedule: Q01DX009 (ip), vehicle: saline with Tween-80
[3] = dose: 400.0 mg/kg/injection, schedule: Q01DX009 (ip), vehicle: saline with Tween-80
[4] = dose: 12.5 mg/kg/injection, schedule: Q01DX009 (ip), vehicle: saline with Tween-80
[5] = dose: 25.0 mg/kg/injection, schedule: Q01DX009 (ip), vehicle: saline with Tween-80
[6] = dose: 50.0 mg/kg/injection, schedule: Q01DX009 (ip), vehicle: saline with Tween-80
[7] = dose: 100.0 mg/kg/injection, schedule: Q04DX003 (ip), vehicle: saline with Tween-80
[8] = dose: 200.0 mg/kg/injection, schedule: Q04DX003 (ip), vehicle: saline with Tween-80
[9] = dose: 400.0 mg/kg/injection, schedule: Q04DX003 (ip), vehicle: saline with Tween-80

Compound: CC(C)c1ccccc1OS(=O)(=O)c1c(F)c(F)c(F)c(F)c1F
- T/C (dose: 6.25 mg/kg/injection, schedule: Q01DX001 (ip), vehicle: saline with Tween-80): 104 % of control
- T/C (dose: 12.5 mg/kg/injection, schedule: Q01DX001 (ip), vehicle: saline with Tween-80): 109 % of control
- T/C (dose: 25.0 mg/kg/injection, schedule: Q01DX001 (ip), vehicle: saline with Tween-80): 118 % of control

Compound: COc1cc(O)c2c(c1O)C(=O)c1cc(C)ncc1C2=O
- T/C [1]: 91 % of control
- T/C [2]: 91 % of control
- T/C [3]: 91 % of control

Compound: CCOP(=O)(OCC)ON1C(=O)c2cccc3cccc(c23)C1=O
- T/C (dose: 0.78 mg/kg/injection, schedule: Q01DX009 (ip), vehicle: Klucel (hydroxypropylcellulose) (HPC)): 97 % of control
- T/C (dose: 1.56 mg/kg/injection, schedule: Q01DX009 (ip), vehicle: Klucel (hydroxypropylcellulose) (HPC)): 99 % of control

Compound: C=C1C(=O)OC2CC(C)C3C=CC(=O)C3(C)C(O)C12 (configuration not stated)
- T/C (dose: 5.0 mg/kg/injection, schedule: Q01DX009 (ip), vehicle: saline with Tween-80): 113 % of control
- T/C (dose: 10.0 mg/kg/injection, schedule: Q01DX009 (ip), vehicle: saline with Tween-80): 112 % of control
- T/C (dose: 20.0 mg/kg/injection, schedule: Q01DX009 (ip), vehicle: saline with Tween-80): 115 % of control

Compound: CC#CC(=O)O
- T/C [4]: 100 % of control
- T/C [5]: 106 % of control
- T/C [6]: 109 % of control
- T/C [1]: 106 % of control

Compound: C[C@@H]1C[C@@]2(C)[C@@H](CC[C@@H]3[C@@H]2CC[C@]2(C)OC(=O)CC[C@@H]32)CC1=O
- T/C (dose: 100.0 mg/kg/injection, schedule: Q04DX003 (ip), vehicle: alcohol): 105 % of control
- T/C (dose: 200.0 mg/kg/injection, schedule: Q04DX003 (ip), vehicle: alcohol): 95 % of control
- T/C (dose: 264.0 mg/kg/injection, schedule: Q04DX003 (ip), vehicle: saline): 95 % of control and 110 % of control
- T/C (dose: 400.0 mg/kg/injection, schedule: Q04DX003 (ip), vehicle: saline): 105 % of control

Compound: O=S(=O)(Cc1ccccc1)C(Cl)(Cl)c1ccccc1
- T/C (dose: 50.0 mg/kg/injection, schedule: Q04DX003 (ip), vehicle: saline with Tween-80): 100 % of control
- T/C [7]: 104 % of control
- T/C [8]: 109 % of control

Compound: CCOC(=O)C1C(=O)NC(=O)CC1C (configuration not stated)
- T/C [1]: 99 % of control
- T/C [7]: 96 % of control
- T/C [2]: 101 % of control
- T/C [8]: 99 % of control
- T/C [3]: 105 % of control
- T/C [9]: 107 % of control

Compound: CN=S(=O)(OC/C=C/COS(=O)(=NC)c1ccc(C)cc1)c1ccc(C)cc1 (configuration not stated)
- T/C [4]: 95 % of control
- T/C [5]: 110 % of control
- T/C (dose: 50.0 mg/kg/injection, schedule: Q01DX009 (ip), vehicle: saline + alcohol): 121 % of control
- T/C [1]: 100 % of control

Compound: CC(=O)OCC(=O)[C@@]1(O)CC[C@H]2[C@@H]3CCC4=CC(=O)CC[C@]4(C)[C@H]3C(=O)C[C@@]21C
- T/C [6]: 95 % of control
- T/C [1]: 112 % of control
- T/C [7]: 100 % of control
- T/C [2]: 100 % of control
- T/C [8]: 86 % of control

Compound: CSC(=S)NNC(=O)c1ccc([N+](=O)[O-])cc1
- T/C (dose: 3.13 mg/kg/injection, schedule: Q04DX003 (ip), vehicle: saline sonified): 90 % of control
- T/C (dose: 6.25 mg/kg/injection, schedule: Q04DX003 (ip), vehicle: saline sonified): 100 % of control
- T/C (dose: 12.5 mg/kg/injection, schedule: Q04DX003 (ip), vehicle: saline sonified): 95 % of control

Compound: O=C(OC(c1ccccc1)c1ccccc1)C(CSC(c1ccccc1)(c1ccccc1)c1ccccc1)NC(c1ccccc1)(c1ccccc1)c1ccccc1 (configuration not stated)
- T/C (dose: 100.0 mg/kg/injection, schedule: Q04DX003 (ip), vehicle: Klucel (hydroxypropylcellulose) (HPC)): 100 % of control
- T/C (dose: 200.0 mg/kg/injection, schedule: Q04DX003 (ip), vehicle: Klucel (hydroxypropylcellulose) (HPC)): 109 % of control
- T/C (dose: 400.0 mg/kg/injection, schedule: Q04DX003 (ip), vehicle: Klucel (hydroxypropylcellulose) (HPC)): 104 % of control

Compound: Nc1nc(=O)c2ccccc2s1
- T/C [7]: 105 % of control
- T/C [8]: 111 % of control
- T/C [9]: 100 % of control

Compound: CN(C)CC(=O)c1ccc(O)c(O)c1
- T/C (dose: 300.0 mg/kg/injection, schedule: Q01DX010 (ip), vehicle: saline): 150 % of control
